Data: ChEMBL document CHEMBL4808212 (Bioorg Med Chem Lett, 2021)

Tests used:
[1] = biological target: Replicase polyprotein 1ab (Severe acute respiratory syndrome coronavirus 2, UniProt P0DTD1); experiment: Inhibition of SARS-CoV-2 3CLpro preincubated for 30 mins followed by addition of (Dabcyl)KTSAVLQSGFRKM(Glu) peptide substrate and measured after […] by FRET assay
[2] = Binding affinity to SARS coronavirus 1 3CL protease using Dabcyl-KTSAVLQ/SGFRKME-Edans as substrate measured by FRET assay; parameters: species or system Severe acute respiratory syndrome-related coronavirus
[3] = Inhibition of SARS coronavirus 1 3CL protease using Dabcyl-KTSAVLQ/SGFRKME-Edans as substrate measured by FRET assay; parameters: species or system Severe acute respiratory syndrome-related coronavirus
[4] = Inhibition of SARS coronavirus 1 3CL protease expressed in Escherichia coli measured by HPLC method; parameters: species or system Severe acute respiratory syndrome-related coronavirus

Compound | IC50 [1] | also measured
CCOC(=O)/C=C/[C@H](C[C@@H]1CCNC1=O)NC(=O)[C@H](CC(C)C)NC(=O)[C@@H](NC(=O)OCc1ccccc1)C(C)C | 286 nM | –
CC(C)C[C@H](NC(=O)OCc1ccccc1)C(=O)N[C@@H](C[C@@H]1CCNC1=O)C(=O)c1nc2ccccc2s1 | > 10000 nM | –
O=C[C@H](C[C@@H]1CCNC1=O)NC(=O)[C@H](Cc1cccc(F)c1)NC(=O)c1cc2ccccc2[nH]1 | 23 nM | –
C[C@@H](OC(C)(C)C)[C@H](NC(=O)OCc1ccccc1)C(=O)N[C@@H](CC1CCCCC1)C(=O)N[C@H](C=O)C[C@@H]1CCNC1=O | – | Ki [2]: 53 nM
CC(C)C[C@H](NC(=O)OCc1ccccc1)C(=O)N[C@@H](CC(C)C)C(=O)N[C@@H](C[C@@H]1CCNC1=O)C(=O)C(=O)NC(C)C | 65 nM | IC50 [3]: 7 nM
COc1cccc2[nH]c(C(=O)N[C@@H](CC(C)C)C(=O)N[C@@H](C[C@@H]3CCNC3=O)C(=O)CO)cc12 [PF-00835231] | – | IC50 [4]: 4 nM
